Measurements taken from the supplement of paper PMC10307832.

Columns and labels:
Assay in all cases: relative viability (nuclei count vs DMSO), 5 days (fraction); higher = more cells survive
[1] = compound: C=CC(=O)Nc1cc(-n2c(=O)ccc3cnc4ccc(-c5ccc(NS(C)(=O)=O)cc5)cc4c32)ccc1C [BMX-IN-1] + CC(=O)Nc1cccc(-n2c(=O)n(C3CC3)c(=O)c3c(Nc4ccc(I)cc4F)n(C)c(=O)c(C)c32)c1 [Trametinib] (partner 0.02 µM)
Method in brief: (§1)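 A single step with final 0.05% Triton X-100, 1% formaldehyde and 1 ug/ml Hoechst fixed the cells and stained nuclei 5 days after treatment. Lung cancer cell lines in 1536-well plates had been treated by pin tool the day after seeding with one drug alone or a fixed anchor-drug dose plus five library-drug doses (not always all listed) in √10 steps, and nuclei were counted on 4× images. Relative viability is the ratio of nuclei in treated wells to nuclei in vehicle wells, taken as the median of duplicate plates.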

[2] = compound: C=CC(=O)N1CCC[C@@H](n2nc(-c3ccc(Oc4ccccc4)cc3)c3c(N)ncnc32)C1 [Ibrutinib] + Nc1ncn([C@H]2C[C@H](O)[C@@H](CO)O2)c(=O)n1 [Decitabine] (partner 2 µM)
Method in brief: as §1

[3] = compound: C=CC(=O)N1CCC[C@@H](n2nc(-c3ccc(Oc4ccccc4)cc3)c3c(N)ncnc32)C1 [Ibrutinib] + C[C@]1(O)C[C@@H](c2nc(-c3ccc4ccc(-c5ccccc5)nc4c3)c3c(N)nccn32)C1 [Linsitinib] (partner 1 µM)
Method in brief: as §1

[4] = compound: C=CCc1cccc(/C=N/NC(=O)CN2CCN(Cc3ccccc3)CC2)c1O [PAC-1] + CS(=O)(=O)CCNCc1ccc(-c2ccc3ncnc(Nc4ccc(OCc5cccc(F)c5)c(Cl)c4)c3c2)o1 [Lapatinib] (partner 2 µM)
Method in brief: as §1

## NCI-H2085
[1]; first compound 0.02 µM
  relative viability: 0.52
[1]; first compound 0.2 µM
  relative viability: 0.75
[1]; first compound 0.6325 µM
  relative viability: 0.564
[1]; first compound 2 µM
  relative viability: 0.538
[2]; first compound 0.005 µM
  relative viability: 0.57
[2]; first compound 0.01581 µM
  relative viability: 0.56
[2]; first compound 0.05 µM
  relative viability: 0.588
[2]; first compound 0.5 µM
  relative viability: 0.568
[3]; first compound 0.005 µM
  relative viability: 1.04
[3]; first compound 0.01581 µM
  relative viability: 0.884
[3]; first compound 0.05 µM
  relative viability: 0.865
[3]; first compound 0.1581 µM
  relative viability: 0.895
[3]; first compound 0.5 µM
  relative viability: 0.775
[4]; first compound 0.02 µM
  relative viability: 0.756
[4]; first compound 0.06325 µM
  relative viability: 0.728
[4]; first compound 0.2 µM
  relative viability: 0.707
[4]; first compound 2 µM
  relative viability: 0.909

## NCI-H650
[1]; first compound 0.02 µM
  relative viability: 1.01
[1]; first compound 0.2 µM
  relative viability: 0.912
[1]; first compound 0.6325 µM
  relative viability: 0.979
[1]; first compound 2 µM
  relative viability: 0.919
[2]; first compound 0.005 µM
  relative viability: 0.384
[2]; first compound 0.01581 µM
  relative viability: 0.325
[2]; first compound 0.05 µM
  relative viability: 0.335
[2]; first compound 0.1581 µM
  relative viability: 0.37
[2]; first compound 0.5 µM
  relative viability: 0.319
[3]; first compound 0.01581 µM
  relative viability: 0.688
[3]; first compound 0.1581 µM
  relative viability: 1.19
[3]; first compound 0.5 µM
  relative viability: 0.889
[4]; first compound 0.02 µM
  relative viability: 1.09
[4]; first compound 0.06325 µM
  relative viability: 1.05
[4]; first compound 0.2 µM
  relative viability: 0.668
[4]; first compound 2 µM
  relative viability: 0.747

## NCI-H460
[1]; first compound 0.02 µM
  relative viability: 0.131
[1]; first compound 0.2 µM
  relative viability: 0.136
[1]; first compound 0.6325 µM
  relative viability: 0.236
[1]; first compound 2 µM
  relative viability: 0.181
[2]; first compound 0.005 µM
  relative viability: 0.541
[2]; first compound 0.01581 µM
  relative viability: 0.419
[2]; first compound 0.05 µM
  relative viability: 0.503
[2]; first compound 0.1581 µM
  relative viability: 0.497
[2]; first compound 0.5 µM
  relative viability: 0.551
[3]; first compound 0.005 µM
  relative viability: 0.643
[3]; first compound 0.01581 µM
  relative viability: 0.652
[3]; first compound 0.05 µM
  relative viability: 0.861
[3]; first compound 0.1581 µM
  relative viability: 0.76
[3]; first compound 0.5 µM
  relative viability: 0.772
[4]; first compound 0.02 µM
  relative viability: 1.01
[4]; first compound 0.06325 µM
  relative viability: 1.01
[4]; first compound 0.2 µM
  relative viability: 0.916
[4]; first compound 2 µM
  relative viability: 0.942

## NCI-H1666
[1]; first compound 0.02 µM
  relative viability: 0.788
[1]; first compound 0.2 µM
  relative viability: 1.06
[1]; first compound 0.6325 µM
  relative viability: 0.977
[1]; first compound 2 µM
  relative viability: 0.885
[2]; first compound 0.005 µM
  relative viability: 0.569
[2]; first compound 0.01581 µM
  relative viability: 0.782
[2]; first compound 0.05 µM
  relative viability: 0.666
[2]; first compound 0.1581 µM
  relative viability: 0.663
[2]; first compound 0.5 µM
  relative viability: 0.632
[3]; first compound 0.005 µM
  relative viability: 0.86
[3]; first compound 0.01581 µM
  relative viability: 0.628
[3]; first compound 0.05 µM
  relative viability: 0.615
[3]; first compound 0.1581 µM
  relative viability: 0.955
[3]; first compound 0.5 µM
  relative viability: 0.422
[4]; first compound 0.02 µM
  relative viability: 0.613
[4]; first compound 0.06325 µM
  relative viability: 0.608
[4]; first compound 0.2 µM
  relative viability: 0.911
[4]; first compound 2 µM
  relative viability: 0.663

## LK-2
[1]; first compound 0.02 µM
  relative viability: 0.943
[1]; first compound 0.2 µM
  relative viability: 1.02
[1]; first compound 0.6325 µM
  relative viability: 0.793
[1]; first compound 2 µM
  relative viability: 0.847
[2]; first compound 0.005 µM
  relative viability: 0.19
[2]; first compound 0.01581 µM
  relative viability: 0.244
[2]; first compound 0.05 µM
  relative viability: 0.261
[2]; first compound 0.1581 µM
  relative viability: 0.217
[2]; first compound 0.5 µM
  relative viability: 0.251
[3]; first compound 0.005 µM
  relative viability: 0.422
[3]; first compound 0.01581 µM
  relative viability: 0.7
[3]; first compound 0.05 µM
  relative viability: 0.552
[3]; first compound 0.1581 µM
  relative viability: 0.377
[3]; first compound 0.5 µM
  relative viability: 0.528
[4]; first compound 0.02 µM
  relative viability: 0.77
[4]; first compound 0.06325 µM
  relative viability: 1.04
[4]; first compound 0.2 µM
  relative viability: 0.884
[4]; first compound 2 µM
  relative viability: 0.932

## NCI-H2009
[1]; first compound 0.02 µM
  relative viability: 0.254
[1]; first compound 0.2 µM
  relative viability: 0.251
[1]; first compound 0.6325 µM
  relative viability: 0.239
[1]; first compound 2 µM
  relative viability: 0.29
[2]; first compound 0.005 µM
  relative viability: 0.375
[2]; first compound 0.01581 µM
  relative viability: 0.373
[2]; first compound 0.05 µM
  relative viability: 0.372
[2]; first compound 0.1581 µM
  relative viability: 0.46
[2]; first compound 0.5 µM
  relative viability: 0.415
[3]; first compound 0.005 µM
  relative viability: 1.21
[3]; first compound 0.01581 µM
  relative viability: 1.13
[3]; first compound 0.05 µM
  relative viability: 1.14
[3]; first compound 0.1581 µM
  relative viability: 1.23
[3]; first compound 0.5 µM
  relative viability: 1.18
[4]; first compound 0.02 µM
  relative viability: 0.93
[4]; first compound 0.06325 µM
  relative viability: 0.318
[4]; first compound 0.2 µM
  relative viability: 0.855
[4]; first compound 2 µM
  relative viability: 0.9

## COR-L 105
[1]; first compound 0.02 µM
  relative viability: 0.427
[1]; first compound 0.2 µM
  relative viability: 0.444
[1]; first compound 0.6325 µM
  relative viability: 0.422
[1]; first compound 2 µM
  relative viability: 0.403
[2]; first compound 0.005 µM
  relative viability: 0.632
[2]; first compound 0.01581 µM
  relative viability: 0.534
[2]; first compound 0.05 µM
  relative viability: 0.431
[2]; first compound 0.1581 µM
  relative viability: 0.689
[2]; first compound 0.5 µM
  relative viability: 0.403
[3]; first compound 0.005 µM
  relative viability: 0.739
[3]; first compound 0.01581 µM
  relative viability: 0.811
[3]; first compound 0.05 µM
  relative viability: 0.709
[3]; first compound 0.1581 µM
  relative viability: 0.914
[3]; first compound 0.5 µM
  relative viability: 0.321
[4]; first compound 0.02 µM
  relative viability: 0.294
[4]; first compound 0.06325 µM
  relative viability: 0.361
[4]; first compound 0.2 µM
  relative viability: 0.413
[4]; first compound 2 µM
  relative viability: 0.406

## LXF-289
[1]; first compound 0.02 µM
  relative viability: 0.722
[1]; first compound 0.2 µM
  relative viability: 0.704
[1]; first compound 0.6325 µM
  relative viability: 0.761
[1]; first compound 2 µM
  relative viability: 0.752
[2]; first compound 0.005 µM
  relative viability: 0.357
[2]; first compound 0.01581 µM
  relative viability: 0.295
[2]; first compound 0.05 µM
  relative viability: 0.381
[2]; first compound 0.1581 µM
  relative viability: 0.38
[2]; first compound 0.5 µM
  relative viability: 0.342
[3]; first compound 0.005 µM
  relative viability: 0.988
[3]; first compound 0.01581 µM
  relative viability: 0.96
[3]; first compound 0.05 µM
  relative viability: 0.923
[3]; first compound 0.1581 µM
  relative viability: 0.955
[3]; first compound 0.5 µM
  relative viability: 0.927
[4]; first compound 0.02 µM
  relative viability: 0.901
[4]; first compound 0.06325 µM
  relative viability: 0.903
[4]; first compound 0.2 µM
  relative viability: 0.897
[4]; first compound 2 µM
  relative viability: 0.927

## HARA
[1]; first compound 0.02 µM
  relative viability: 0.907
[1]; first compound 0.2 µM
  relative viability: 0.449
[1]; first compound 0.6325 µM
  relative viability: 0.492
[1]; first compound 2 µM
  relative viability: 0.654
[2]; first compound 0.005 µM
  relative viability: 0.5
[2]; first compound 0.01581 µM
  relative viability: 0.486
[2]; first compound 0.05 µM
  relative viability: 0.376
[2]; first compound 0.1581 µM
  relative viability: 0.468
[2]; first compound 0.5 µM
  relative viability: 0.264
[3]; first compound 0.005 µM
  relative viability: 1.09
[3]; first compound 0.01581 µM
  relative viability: 0.818
[3]; first compound 0.05 µM
  relative viability: 0.751
[3]; first compound 0.1581 µM
  relative viability: 0.904
[4]; first compound 0.02 µM
  relative viability: 0.698
[4]; first compound 0.06325 µM
  relative viability: 0.875
[4]; first compound 0.2 µM
  relative viability: 0.796
[4]; first compound 2 µM
  relative viability: 0.905
